The structures appear in SMILES notation.

The source of these data is patent publication US9670242B2, “Tetracyclic anthraquinone derivatives” (Tianjin Hemay Bio-Tech Co., Ltd, priority 2012, dated 2017).

What all share (format): cell-based, human
The test system of one experiment is 22Rv1 cells. Kind of experiment: 22Rv1 cell growth inhibition test (SRB assay). Conditions: growth inhibition at 222 nM, 73 h. As for the experimental part: 22Rv1 Cell Growth Inhibition Test (SRB Assay)
Cell strains: 22Rv1 (human prostate cancer cell strains); SRB: 0.4% (w/v) working solution was formulated with 1% glacial acetic acid, reserved at 4° C.; antitumor compounds; DMSO.
(§1) II. Reagents and Consumable Materials
(§2) Culture medium: 90% RPMI-1640+10% FBS; Pancreatin (0.25% (w/v) solution was formulated with PBS, 0.53 mM of EDTA was added in the formulation); PBS; 96-well culture plate.
(§3) 1. A plate (10 cm) of cells in logarithmic growth phase that were normally cultured was collected;
(§4) 2. The culture solution was sucked out. The plate was washed with 5 mL of PBS once or twice;
(§5) 3. 1.5 mL of 0.25% pancreatin was added to the plate to infiltrate the cells;
(§6) 4. The pancreatin was sucked out. The culture plate was placed in an incubator. Digestion was carried out for about 3 min at 37° C.;
5. 4 mL of complete culture solution was added to the culture plate to stop the digestion. The cells were carefully scoured with micropipette (1 ml) to give a uniform single cell suspension. The suspension was implanted into a 96-well cell culture plate by 7000 cells/100 μL per well. The culture plate was incubated overnight under 5% CO2 at 37° C. In day 2, 100 μL of culture solution comprising a compound was added in each well. The plate was further incubated for 73 h under 5% CO2 at 37° C.;
(§7) 6. The culture solution was sucked out. 100 uL of TCA fixed cells which were diluted to 10% were added to each well. The plate was kept in a refrigerator for 1 h at 4° C.
(§8) 7. TCA stationary liquid was sucked out. Each well was washed with 150 μL of ddH2O five times;
(§9) 8. After the stationary liquid was cleansed, the plate was dried in the air at the room temperature;
(§10) 9. 60 μL of SRB staining solution was added in each well. The well was stained for 15 min at the room temperature;
(§11) 10. The SRB staining solution was sucked out. Each well was washed with 150 μL of 1% glacial acetic acid five times;
(§12) 11. After the SRB staining solution was cleansed, the plate was dried in the air at the room temperature;
(§13) 12. 100 μL of 10 mM Tris was added in each well. The plate was vibrated to dissolve out SRB;
(§14) 13. OD values were determined at 570 nM.
(§15) IV. Results and Treatments
(§16) 1. Calculation of Relative Inhibition Ratio The inhibition ratio of a compound on cell growth=(PC−n)/(PC−NC)×100%
(§17) PC: OD values of cells after normal growth in control wells without a compound;
(§18) n: OD values of cells after growth in test wells with a compound;
(§19) NC: Background OD values of blank wells without a compound and cells.
A general note: Sulforhodamine B stains cellular protein and so reports cell mass.

A further experiment has as its system MDA-MB-453 cells. The experiment is described as follows: MDA-MB-453 cell growth inhibition test (SRB assay). The note with it: growth inhibition at 2000 nM, 69.5 h. As for the experimental part:
MDA-MB-453 Cell Growth Inhibition Test (SRB Assay)
Cell strains: MDA-MB-453 (human breast cancer cell strains); SRB: 0.4% (w/v) working solution was formulated with 1% glacial acetic acid, reserved at 4° C.; antitumor compounds; DMSO.
as §1
Culture medium: 90% L15+10% FBS; pancreatin (0.25% (w/v) solution was formulated with PBS, 0.53 mM of EDTA was added in the formulation); PBS; 96-well culture plate.
as §3, §4, §5, §6
5. 4 mL of complete culture solution was added to the culture plate to stop the digestion. The cells were carefully scoured with micropipette (1 ml) to give a uniform single cell suspension. The suspension was implanted into a 96-well cell culture plate by 7000 cells/100 μL per well. The culture plate was incubated overnight under 5% CO2 at 37° C. In day 2, 100 μL of culture solution comprising a compound was added in each well.
The plate was further incubated for 69.5 h under 5% CO2 at 37° C.;
as §7, §8, §9, §10, §11, §12, §13, §14, §15, §16, §17, §18, §19

In a further experiment the test system is NCI-H446 cells. Kind of experiment: NCI-H446 cell growth inhibition test (MTT assay). The note with it: growth inhibition at 222 nM, 70 h. Here is the method:
NCI-H446 Cell Growth Inhibition Test (MTT Assay)
Cell strains: NCI-H446 (human small cell lung cancer cell strains); MTT; antitumor compounds; DMSO.
as §1, §2, §3, §4
(§20) 3. PBS was sucked out. 1.5 mL of 0.25% pancreatin was added to infiltrate the cells;
4. The culture plate was placed in an incubator. Digestion was carried out for about 3 min at 37° C.;
5. 3 mL of complete culture solution was added to the culture plate to stop the digestion. The cells were carefully scoured with micropipette (1 ml) to give a uniform cell suspension. The suspension was implanted into a 96-well cell culture disc by 4000 cells/100 μL per well. The culture plate was incubated overnight under 5% CO2 at 37° C. In day 2, 100 μL of culture solution comprising a compound was added in each well. The plate was further incubated for 70 h under 5% CO2 at 37° C.;
(§21) 6. The culture solution was sucked out;
(§22) 7. 100 μL of serum-free culture solution containing 0.5 mg/mL MTT was added in each well. The plate was incubated for 3 h;
(§23) 8. The culture solution was carefully sucked out;
(§24) 9. 100 μL of DMSO was added into each well and vibrated to dissolve;
(§25) 10. OD values were determined at 490 nM.
as §15, §16, §17, §18, §19
A general note: Formazan colour is commonly taken as a measure of viable cells.

The test system of a further experiment is SK-OV-3 cells. The experiment is described as follows: SK-OV-3 cell growth inhibition test (MTT assay). The note with it: growth inhibition at 667 nM, 69 h. Here is the method:
SK-OV-3 Cell Growth Inhibition Test (MTT Assay)
Cell strains: SK-OV-3 (human ovarian cancer cell strains); MTT; antitumor compounds; DMSO.
as §1
Culture medium: 90% McCoy's 5A+10% FBS; Pancreatin (0.25% (w/v) solution was formulated with PBS, 0.53 mM of EDTA was added in the formulation); PBS; 96-well culture plate.
as §3, §4, §20
4. The pancreatin was sucked out. The culture plate was placed in an incubator. Digestion was carried out for about 5 min at 37° C.;
5. 4.5 mL of complete culture solution was added to the culture plate to stop the digestion. The cells were carefully scoured with micropipette (1 ml) to give a uniform cell suspension. The suspension was implanted into a 96-well cell culture disc by 4000 cells/100 μL per well. The culture plate was incubated overnight under 5% CO2 at 37° C. In day 2, 100 μL of culture solution comprising a compound was added in each well. The plate was further incubated for 69 h under 5% CO2 at 37° C.;
as §21, §22, §23
9. 100 μL of DMSO was added in each well and vibrated to dissolve;
as §25, §15, §16, §17, §18, §19

The test system of the next experiment is BxPc-3 cells. The experiment is described as follows: BxPc-3 cell growth inhibition test (MTT assay). The note with it: growth inhibition at 2000 nM, 70 h. As for the experimental part: BxPc-3 Cell Growth Inhibition Test (MTT Assay)
Cell strains: BxPC-3 (human pancreatic cancer cell strains); MTT; antitumor compounds; DMSO.
as §1, §2, §3, §4, §20
4. The culture plate was placed in an incubator. Digestion was carried out for about 8 min at 37° C.;
5. 4.5 mL of complete culture solution was added to the culture plate to stop the digestion. The cells were carefully scoured with micropipette (1 ml) to give a uniform cell suspension. The suspension was implanted into a 96-well cell culture disc by 5000 cells/100 μL per well. The culture plate was incubated overnight under 5% CO2 at 37° C. In day 2, 100 μL of culture solution comprising a compound was added in each well. The plate was further incubated for 70 h under 5% CO2 at 37° C.;
as §21, §22, §23, §24, §25, §15, §16, §17, §18, §19

In the case of `COc1cccc2c1C(=O)c1c(O)c3c(c(O)c1C2=O)CC(O)(C(=O)COC(=O)CCC(=O)NCCOCCOCCOCCO)CC3O[C@H]1C[C@H](n2cccc2)[C@H](O)[C@H](C)O1` (stereo partly drawn) [Example 1, 10-((3′-(pyrrol-1-yl)-2′,3′,6′-trideoxy-alphal-l-lyxo-hexylpyranyl)oxy)-7,8,9,10-tetrahydro-6,8,11-trihydroxy-13-oxo-14-(4-(2-(2-(2-(2-hydroxyethoxy)ethoxy)ethoxy)ethylamino)-4-oxo-butyrato)-1-methoxy-5,12-naphthalenedione], the “Inhibition Ratio (%)” value was determined as 52.2% in the experiment on 22Rv1 cells; 77.7% in the experiment on MDA-MB-453 cells; 43.2% in the experiment on NCI-H446 cells; 57.3% with SK-OV-3 cells; 82.5% with BxPc-3 cells.
Consider `COc1cccc2c1C(=O)c1c(O)c3c(c(O)c1C2=O)CC(O)(C(=O)COC(=O)CCCC(=O)Nc1ccc(CN2CCOCC2)cc1)CC3OC1CC(n2cccc2)C(O)C(C)O1` (stereo not drawn) [Example 3], for which the “Inhibition Ratio (%)” value in the experiment with 22Rv1 cells is 61.9%; with MDA-MB-453 cells it was 73.9%; with NCI-H446 cells it was 60.8%; in the experiment on SK-OV-3 cells, 62.5%; in the experiment on BxPc-3 cells it was 81.2%.
For `COc1cccc2c1C(=O)c1c(O)c3c(c(O)c1C2=O)CC(O)(C(=O)COC(=O)CCC(=O)N1CCN(CCO)CC1)CC3OC1CC(n2cccc2)C(O)C(C)O1` (stereo not drawn) [Example 8], in that order: 56.8%, 75.3%, 59.5%, 60% and 82.6%.
Turning to `COc1cccc2c1C(=O)c1c(O)c3c(c(O)c1C2=O)CC(O)(C(=O)COC(=O)CCC(=O)NN1CCOCC1)CC3OC1CC(n2cccc2)C(O)C(C)O1` (stereo not drawn) [Example 10], the “Inhibition Ratio (%)” value turned out to be 62.7% in the experiment with 22Rv1 cells; 78.5% in the experiment with MDA-MB-453 cells; 61.1% in the experiment on NCI-H446 cells; 71.5% in the experiment with SK-OV-3 cells; 85% in the experiment on BxPc-3 cells.
Consider `COc1cccc2c1C(=O)c1c(O)c3c(c(O)c1C2=O)CC(O)(C(=O)COC(=O)CCC(=O)NCCCN1CCOCC1)CC3OC1CC(n2cccc2)C(O)C(C)O1` (stereo not drawn) [Example 12], for which the “Inhibition Ratio (%)” value came to 53.3% in the experiment with 22Rv1 cells; 73.7% in the experiment on MDA-MB-453 cells; 54.6% in the experiment with NCI-H446 cells; 48.8% in the experiment with SK-OV-3 cells; 74.9% in the experiment with BxPc-3 cells.
Consider `COc1cccc2c1C(=O)c1c(O)c3c(c(O)c1C2=O)CC(O)(C(=O)COC(=O)CCC(=O)NN1CCN(C)CC1)CC3OC1CC(n2cccc2)C(O)C(C)O1` (stereo not drawn) [Example 14], for which the “Inhibition Ratio (%)” value in the experiment with 22Rv1 cells stood at 52.1%; in the experiment on MDA-MB-453 cells, 74.4%; with SK-OV-3 cells, 53.6%; with BxPc-3 cells it was 81.8%.
Turning to `COc1cccc2c1C(=O)c1c(O)c3c(c(O)c1C2=O)CC(O)(C(=O)COC(=O)CCC(=O)NCCCN1CCCC1)CC3OC1CC(n2cccc2)C(O)C(C)O1` (stereo not drawn) [Example 18], the “Inhibition Ratio (%)” value is reported as 47.4% with SK-OV-3 cells and 70.7% in the experiment with BxPc-3 cells.
As to `COc1cccc2c1C(=O)c1c(O)c3c(c(O)c1C2=O)CC(O)(C(=O)COC(=O)CCC(=O)Nc1ccc(N2CCOCC2)nc1)CC3OC1CC(n2cccc2)C(O)C(C)O1` (stereo not drawn) [Example 20], the “Inhibition Ratio (%)” value in the experiment on 22Rv1 cells is 60.9%; with MDA-MB-453 cells, 82.4%; with NCI-H446 cells, 68%; in the experiment on SK-OV-3 cells, 62.6%; with BxPc-3 cells, 84.1%.
For the compound `COc1cccc2c1C(=O)c1c(O)c3c(c(O)c1C2=O)CC(O)(C(=O)COC(=O)CCC(=O)Nc1ccncc1)CC3OC1CC(n2cccc2)C(O)C(C)O1` (stereo not drawn) [Example 22], the “Inhibition Ratio (%)” value with 22Rv1 cells came to 56.3%; in the experiment with MDA-MB-453 cells, 71.1%; in the experiment with NCI-H446 cells, 62.1%; in the experiment on SK-OV-3 cells it was 60.3%; with BxPc-3 cells it was 82%.
Take `COc1cccc2c1C(=O)c1c(O)c3c(c(O)c1C2=O)CC(O)(C(=O)COC(=O)CCC(=O)Nc1cccnc1)CC3OC1CC(n2cccc2)C(O)C(C)O1` (stereo not drawn) [Example 24]: the “Inhibition Ratio (%)” value was determined as 63.6% with 22Rv1 cells; 79.8% with MDA-MB-453 cells; 61.8% in the experiment on NCI-H446 cells; 61.4% with SK-OV-3 cells; 84.7% in the experiment with BxPc-3 cells.
Turning to `COc1cccc2c1C(=O)c1c(O)c3c(c(O)c1C2=O)CC(O)(C(=O)COC(=O)CCC(=O)NCc1ccncc1)CC3OC1CC(n2cccc2)C(O)C(C)O1` (stereo not drawn) [Example 26], the “Inhibition Ratio (%)” value is reported as 60.8% with 22Rv1 cells; 79.9% with MDA-MB-453 cells; 66.9% with NCI-H446 cells; 67.6% with SK-OV-3 cells; 82.7% with BxPc-3 cells.
For `COc1cccc2c1C(=O)c1c(O)c3c(c(O)c1C2=O)CC(O)(C(=O)COC(=O)CCC(=O)NCc1cccnc1)CC3OC1CC(n2cccc2)C(O)C(C)O1` (stereo not drawn) [Example 28], in that order: 63.1%, 81.9%, 65.8%, 66.2% and 84.7%.
Regarding `COc1cccc2c1C(=O)c1c(O)c3c(c(O)c1C2=O)CC(O)(C(=O)COC(=O)CCC(=O)NS(=O)(=O)c1ccccc1)CC3OC1CC(n2cccc2)C(O)C(C)O1` (stereo not drawn) [Example 95], the “Inhibition Ratio (%)” value in the experiment with 22Rv1 cells is 51.3%; with MDA-MB-453 cells it was 68.2%; with SK-OV-3 cells it was 66.3%; in the experiment with BxPc-3 cells, 80.6%.
